Assay results published in patent US20070276024A1, “Methods for Treating Diseases and Conditions with Inverse Agonists and for Screening for Agents Acting as Inverse Agonists” (Inverseon , Inc., priority 2003, published 2007).
Entries after “also recorded” stand apart in the source; their conditions may differ. Read-outs that look alike come from different tables or passages of the source.

Key:
β2-adrenergic receptor [1] = molecular target: T1, β2-adrenergic receptor (Mus musculus, UniProt P18762); assay type: in vivo, mice; conditions: for increase of the level of β2-adrenergic receptors over the non-treated mice: chronic administration; for Bmax (receptor density) / βmax (receptor density): lung membranes, mean±SEM, n=3-5; for Bmax (receptor density): drug treatment 15 Minutes; for βmax (receptor density): drug treatment 28 Days
T1 sequence (P18762 whole entry): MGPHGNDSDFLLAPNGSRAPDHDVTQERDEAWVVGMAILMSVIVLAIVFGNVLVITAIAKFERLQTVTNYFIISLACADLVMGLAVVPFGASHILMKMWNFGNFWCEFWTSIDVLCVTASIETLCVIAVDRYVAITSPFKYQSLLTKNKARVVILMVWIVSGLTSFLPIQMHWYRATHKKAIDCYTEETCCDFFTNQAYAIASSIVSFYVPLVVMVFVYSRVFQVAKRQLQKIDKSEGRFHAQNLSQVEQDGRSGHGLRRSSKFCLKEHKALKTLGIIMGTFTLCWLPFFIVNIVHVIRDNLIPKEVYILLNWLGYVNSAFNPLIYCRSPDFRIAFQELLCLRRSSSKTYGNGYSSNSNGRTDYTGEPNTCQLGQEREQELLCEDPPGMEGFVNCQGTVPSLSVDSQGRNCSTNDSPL
Procedure: β2-adrenergic receptor numbers were measured in asthmatic mice as follows. […] Mice were sacrificed and lung membranes were isolated as follows. Frozen lung tissue was homogenized in an ice-cold buffer containing 0.32 M sucrose and 25 mM Tris (pH 7.4) using a polytron (Pro 200, Pro Scientific, Inc.). The homogenate was centrifuged at 1000×g for 10 min at 4° C. The resulting supernatant was centrifuged at 40,000×g for 20 min at 4° C. The pellet was suspended in an ice-cold 25 mM Tris-HCl buffer (pH 7.4) and centrifuged at 40,000'g for 20 min at 4° C. The final pellet was suspended in 200 μL of 25 mM Tris-HCl (pH 7.4); membrane protein concentration was determined by BCA protein assay kit. […] The incubation was done at 37° C. for 2 h and terminated by rapid vacuum filtration through glass fiber filters. The filters were washed three times with 250 μL of cold wash buffer (25 mM Tris-HCl, pH 7.4) and the radioactivity determined in a counter. […] Receptor densities are expressed as femtomoles of sites per milligram of protein. Bmax is determined by nonlinear regression of the saturation binding curves.

asthmatic mice [2] = assay: Airway resistance (Raw) response to methacholine in murine model of asthma; assay type: in vivo, Balb/cJ mice
Procedure: Balb/cJ mice aged 6 weeks (Jackson Animal Laboratory, Bar Harbor, Maine) were housed under specific pathogen-free conditions and fed a chicken ovalbumin-free diet. The Animal Research Ethics Boards of both the University of Houston and the Baylor College of Medicine approved all experiments reported here. […] Mice were sensitized with subcutaneous injection of 25 μg of ovalbumin adsorbed to aluminum hydroxide on protocol days 2, 9, and 16. Subsequently, mice were given 50 μL of saline solution containing 25 μg of ovalbumin intranasally, on a daily basis, from protocol days 23 through 27. A group of ovalbumin-sensitized saline-challenged mice serves as controls for systemic sensitization and respiratory challenges with ovalbumin. Prior to intranasal administrations, mice were sedated with halothane vapor.
To examine the effects of duration of β-adrenergic ligand therapy on the phenotype of the murine model of asthma, the experimental drugs were administered either acutely or chronically to different groups of asthmatic mice.
Asthmatic mice on acute therapy were given a single intravenous bolus infusion of either β-adrenergic drug or normal saline on protocol day 28, 15 minutes before airway responsiveness to methacholine was determined. […] […] […] These concentrations were chosen based on those producing therapeutic effects in mice in previously published studies. The non-asthmatic mice were fed normal chow.
On protocol day 28, mice were anesthetized, tracheotomized, and connected to a computer-controlled small animal ventilator (Flexivent, Scientific Respiratory Equipment, Inc., Montreal, Canada). Airway resistance (Raw) was measured using the forced oscillation technique. The cellular composition of bronchoalveolar lavage fluid (BALF) was also determined.
To induce airway constriction, a solution containing 150 μg/mL of acetyl-α-methylcholine chloride (methacholine) (Sigma Chemical, St. Louis, Mo.) was infused intravenously at constant rates using a syringe infusion pump (Raze Scientific Instruments, Stanford, Conn.). […] Each methacholine dose was administered for 3 to 5 minutes, during which data were sampled at 1-minute intervals and then averaged.
The complex input impedance of the respiratory system was computed and the value of the real part of respiratory system impedance at 19.75 Hz was taken to reflect the magnitude of airway resistance (Raw). To examine the degree of airway responsiveness of each animal, the values for Raw as a function of methacholine doses were plotted. The largest value for Raw achieved in response to methacholine stimulation was referred to as Rawpeak. For mice that achieved a plateau in the methacholine dose-Raw response curve, the ED50 was calculated by linear interpolation using the GraphPad Prism4 (GraphPad Software, Inc.). […] The Bonferroni test was used to examine the statistical differences between experimental groups. The effects of acute drug treatments on baseline respiratory system mechanics were assessed using a two-tailed paired t-test. A value of P<0.05 was considered significant.
For these experiments, salbutamol was used for chronic administration at 0.5 mg/kg/day with a minipump and for acute administration at 0.15 mg/kg by i.v. bolus 15 minutes prior to challenge. Alprenolol was used at a high dose of 7200 ppm in chow or at a low dose of 720 ppm in chow. Carvedilol was used at a high dose of 2400 ppm in chow or at a low dose of 720 ppm in chow.
The airway resistance (Raw) is plotted as cm H2O ml^−1 s.

[3] = system: sensitized and allergen-challenged mice; assay: Aminophylline on acute airway effects of nadolol; assay type: in vivo
Procedure: Mice were sensitized to the allergen ovalbumin as described in Example 1.
At time point 1 (time=−10 min) baseline airway resistance of the mice was determined. At time point 2 (time=−5 min) methacholine was infused into mice to reach their EC70.

asthmatic mice [4] = conditions: Callaerts-Vegh et al. 2004, cited from earlier work
Phospholipase C (PLC-β1) = assay: Ratio of phospholipase C to actin in cultured tracheal smooth muscle cells (immunoblot); assay type: cell-based; conditions: cells from asthmatic mice, chronic high dose treatment
Description: Cultured tracheal smooth muscle cells were obtained from mice exposed to the following treatments: NS/NC=nonasthmatic, non-challenged mice; S/C=asthmatic mice; Sal.Ac=asthmatic mice, acute salbutamol treatment; Sal.Ch=asthmatic mice, chronic salbutamol treatment; Nad.Ac=asthmatic mice, acute nadolol high dose treatment; and Nad.Ch=asthmatic mice, chronic nadolol high dose treatment.
After airway function experiments, the trachea were surgically removed from anesthetized mice that had been treated with drugs or vehicle. The trachea was minced and the cells plated and grown in culture. The smooth muscle cells grow faster and take over the culture dish. The cells were grown in medium which contained the drugs used in the treatment or vehicle controls. Phospholipase C (PLC-β1) was determined by immunoblotting with an antibody specific for the enzyme. Actin was used as a loading control and the amount of PLC-β1 was expressed as a ratio to actin.
The phospholipase C protein level was measured in these cultured cells and compared with the level of the structural protein actin as a baseline. The enzyme phospholipase C plays a key role in the pathway leading to asthmatic symptoms, as it cleaves a phosphodiester bond in membrane phospholipids, resulting in the formation of a 1,2-diglyceride. […]

β2-adrenergic receptor [5] = molecular target: T1, β2-adrenergic receptor; assay: Immunohistochemistry of β2-adrenergic receptor levels in lungs; assay type: in vivo, mice; set-up: from tissue; host or cells: fixed lung sections of mice; conditions: chronic treatment, versus untreated animals
Procedure: The mice were sacrificed and the lungs excised. Then the lungs were fixed in 4% paraformaldehyde (45 min, 0° C.). After fixation, lungs were washed in PBS (60 min) and placed in increasing concentrations of sucrose (10% sucrose/5% glycine in PBS for 30 min; 20% sucrose/10% glycine in PBS for 30 min; 30% sucrose/25% glycine in PBS for 12 h at 4° C.). Lungs were embedded in OCT and 12-μm sections cut with a Tissue-Tek II cryostat. The sections were air dried and fixed with 4% paraformaldehyde for 15 min. After 3 washes in PBS, the slides were blocked with 5% milk in PBS for 1 h, and then incubated overnight with anti-β2-adrenergic receptor antibody (1:200, Santa Cruz Biotechnology) in blocking solution. Slides were washed in PBS and incubated with secondary antibody (1:200, Cy3 goat anti-rabbit, 16 h at 4° C.). […] After washing with PBS, coverslips were mounted and viewed by epifluorescent microscopy.

patients with CHF = conditions: cited from earlier work
asthmatic mice [6] = assay: Combination of carvedilol and salbutamol on airway hyperresponsiveness; assay type: in vivo, Balb/cJ mice; conditions: at the highest dose of methacholine; 28 days treatment
Procedure: Mice (Balb/cJ) aged 6 weeks were housed under specific pathogen-free conditions and fed a chicken ovalbumin-free diet. Mice were systemically sensitized with ovalbumin adsorbed to aluminum hydroxide. Mice were treated as follows: CAR/SAL 28D=for 28 days mice (n=6-12) were administered carvedilol (2400 ppm in animal chow) and salbutamol (subcutaneous delivery of 0.5 mg/kg/day in an Alzet #2400 osmotic minipump); NTX S/C=mice (n=6-12) no drug treatment for 28 days; CTRL=mice (n=6-12) no drug treatment for 28 days, not subsequently challenged; CARHD 28D=for 28 days mice (n=6-12) were administered carvedilol only (2400 ppm in animal chow); CARHD 28D SAL AC=for 28 days mice (n=6-12) were administered carvedilol (2400 ppm in animal chow) and 15 minutes prior to measuring airway hyperresponsiveness, salbutamol was administered at a dose of 1.2 mg.kg.
To measure airway hyperresponsiveness after 28 days, all mice except the CTRL (control) mice were challenged with ovalbumin and then all mice were anesthetized, tracheotomized, and connected to a Flexivent small animal ventilator to measure airway resistance (Raw) by the forced oscillation technique. To induce airway constriction, a solution containing 150 μg/mL of methacholine was infused using a syringe infusion pump. The methacholine infusion was started at 0.008 mL/min and its rate was doubled stepwise up to a maximum […]. […]

[7] = asthmatic mice, acute: single intravenous bolus 15 minutes before methacholine
[8] = asthmatic mice, chronic administration, 28 days (in chow; salbutamol by osmotic minipump)

Structure (SMILES) | Increased β2AR density (β2-adrenergic receptor [1]; 15 minutes of administration) | Increased β2AR density (β2-adrenergic receptor [1]; 2 days of administration) | Increased β2AR density (β2-adrenergic receptor [1]; 28 days of administration) | increase of the level of β2-adrenergic receptors over the non-treated mice (β2-adrenergic receptor [1]) | Bmax (receptor density) (β2-adrenergic receptor [1]) | βmax (receptor density) (β2-adrenergic receptor [1]) | Decreased Raw (asthmatic mice [2]; 15 minutes of administration) | Decreased Raw (asthmatic mice [2]; 2 days of administration) | Decreased Raw (asthmatic mice [2]; 28 days of administration) | airway responsiveness to methacholine provocation (airway resistance, Raw) (asthmatic mice [2]; [7]) | airway responsiveness to methacholine provocation (airway resistance, Raw) (asthmatic mice [2]; [8]) | also measured
CC(C)(C)NCC(O)COc1cccc2c1CC(O)C(O)C2 (centres unmarked) [Nadolol, nadolol] | no | yes | yes | nearly eightfold increase | 181.9 ± 48.28 femtomoles of sites per milligram of protein | 785.5 ± 154.8 femtomoles of sites per milligram of protein | no | yes | yes | enhanced the airway responsiveness | produced a decrease in airway responsiveness; also recorded: providing protection from airway hyperresponsiveness; also recorded: reduced the responsiveness | Increased β2AR density (β2-adrenergic receptor [1]; 2 days of administration, listed as nadolol): increase in receptor density; Increased β2AR density (β2-adrenergic receptor [1]; 28 days of administration, listed as nadolol): increase in receptor density; airway resistance (Raw) (asthmatic mice [2]; asthmatic mice, 1 ppm in chow): identical to the untreated mice; baseline airway resistance ([3]; pretreated 0.72 mg/kg i.p.): same baseline airway resistance; airway resistance upon methacholine challenge ([3]; pretreated 0.72 mg/kg i.p. 15 minutes prior to methacholine, methacholine infused to EC70): ~4.5 units; airway hyperresponsiveness (asthmatic mice [4]; administered acutely): worsens airway hyperresponsiveness; airway hyperresponsiveness (asthmatic mice [4]; administered chronically): prevents airway hyperresponsiveness; phospholipase C (ratio of PLC-β1 to actin) (Phospholipase C (PLC-β1)): significantly decreases the activity of phospholipase C; labeling with anti-β2-adrenergic receptor antibodies in lungs (β2-adrenergic receptor [5]): considerably more intense; also recorded: increase in β-adrenergic receptor density
COc1ccccc1OCCNCC(O)COc1cccc2[nH]c3ccccc3c12 (centres unmarked) [Carvedilol, carvedilol] | no | no | yes | over 10 fold | 86.3 ± 19.42 femtomoles of sites per milligram of protein | 904.1 ± 43.46 femtomoles of sites per milligram of protein | no | no | yes | enhanced the airway responsiveness | does reduce airway hyperresponsiveness; also recorded: reduced the responsiveness of asthmatic mice to methacholine provocation; also recorded: providing protection from airway hyperresponsiveness | Increased β2AR density (β2-adrenergic receptor [1]; 28 days of administration, listed as carvedilol): increase in receptor density; clinical outcome (mortality, benefit over placebo) (patients with CHF): significant mortality reduction; shift of methacholine dose-airway response relationship (asthmatic mice [2]; asthmatic mice, chronic delivery, 28 days): shifts the sensitivity of the responsiveness to methacholine to lower concentrations; also recorded: shifted the methacholine dose-airway response relationship to the left; bronchoconstriction (airway resistance) (asthmatic mice [6]): higher bronchoconstriction than these treatments but less than the non-drug treated sensitized and challenged (NTX S/C) mice
